Test results taken from patent US11666619B2, “Composition for treating atopic dermatitis including herbal medicine mixed extract” (University—Industry Cooperation Group of Kyung Hee …, priority 2016, dated 2023).

Experiments:
BALB/c mouse = assay: DNCB-induced AD-like skin lesions in BALB/c mouse: clinical signs, skin thickness, spleen weight, body weight; assay type: in vivo; conditions: DNCB-treated BALB/c mice
Description: To examine effects of KAJD on atopic dermatitis (AD), DNCB (2,4-dinitrochlorobenzene) was applied to the skin of a BALB/c mouse to induce AD-like symptoms. In many studies regarding atopic dermatitis, models in which atopy-like dermatitis was induced using chemical antigens such as DNCB, 2,4-dinitrofluorobenzene, 2,4,6-trinitrothlorobenzene, etc. are used ([…]. et al, Immunology, 1995, 86, 545-550). In detail, 6-week-old BALB/c mice (20±2 g) were used, which were purchased from Orient Inc. (Seongnam, Korea). Mice were randomly divided into control groups or experimental groups (no treatment, DNCB, DNCB+tacrolimus, DNCB+KAJD), each group including five mice. All mice were raised under a pathogen-free environment with free access to sterile distilled water and solid feed. All mouse experiments were approved by the Experimental Animal Ethics Committee of Kyung Hee University (Approval Number: KHUASP (SE)-14-014). To induce AD-like skin lesions, the dorsal skin of the mouse was shaved, and 100 μL of 2% DNCB was applied thereto using a patch of 1 cm×1 cm twice a week. KAJD or tacrolimus, which is an existing therapeutic agent for AD, was periodically applied to the DNCB-applied skin for 2 weeks. At 28 days, all mice were sacrificed by CO2 inhalation. To examine changes in the skin of the BALB/c mouse by KAJD, clinical signs were observed once a week for 4 weeks. Severities of AD-like lesions in the dorsal skin, which are indicated by erythema/bleeding, edema, exfoliation/dryness, and excoriation/erosion, were scored according to a scale of 0 to 3 (0: absent, 1: mild, 2: moderate, 3: severe). Individual scores were added, and clinical skin scores were defined according to a scale of 0 to 12.

white blood cells (WBCs) = assay: Number of white blood cells in blood of DNCB-treated mice (hematology analyzer); assay type: in vivo, mouse; conditions: FIG. 5
Protocol: High levels of white blood cells (WBCs) are observed in most atopic dermatitis patients. Therefore, to examine therapeutic effects of KAJD on atopic dermatitis, the number of WBCs in the blood of mice was analyzed after treatment with KAJD. In detail, whole blood samples were collected from the heart of a mouse, and stored in a Vacutainer™ tube containing EDTA (BD Science, NJ, USA). The number of WBCs, lymphocytes, monocytes, eosinophils, basophils, or neutrophils was analyzed using a HEMAVET 950 hematology analyzer (Drew Scientific, Inc., Oxford, USA).

[1] = system: serum IgE and inflammatory cytokines; assay: Serum IgE and inflammatory cytokines in DNCB-treated mice (sandwich ELISA); assay type: in vivo, mouse; conditions: FIG. 6
Protocol: One of the features of AD is high expression levels of blood IgE and inflammatory cytokines. Therefore, to analyze a mechanism of anti-inflammatory activity of KAJD, levels of blood IgE and inflammatory cytokines in DNCB-treated mice were analyzed. In detail, expression levels were analyzed by sandwich ELISA using a BD PharMingen mouse or human ELISA set (Pharmingen, San Diego, Calif., USA). A plate was coated with a capture antibody contained in an ELISA coating buffer (Sigma, St. Louis, Mo., USA), and stored at 4° C. for one day. The plate was washed with 0.05% PBS-Tween 20, and subsequently, blocked with 10% FBS-containing PBS at 20° C. for 1 hour. A standard antigen or sample serially diluted with a dilution buffer (10% FBS-containing PBS) was put in the plate, followed by incubation at 20° C. for 1 hour. Thereafter, biotin-conjugated anti-mouse IgE and SAv-HRP (streptavidin-horseradish peroxidase conjugate) was added to the plate, followed by incubation at 20° C. for 1 hour. Lastly, a TMB (tetramethylbenzidine) substrate solution was added to the plate, and incubated under dark conditions for 15 minutes, and then the reaction was terminated with a 2 N H2SO4 solution. Optical density was measured using an ELISA reader (Versa Max, Molecular Devices, CA, USA) at 450 nm.

SMILES: C=CC[C@@H]1/C=C(\C)C[C@H](C)C[C@H](OC)[C@H]2O[C@@](O)(C(=O)C(=O)N3CCCC[C@H]3C(=O)O[C@H](/C(C)=C/[C@@H]3CC[C@@H](O)[C@H](OC)C3)[C@H](C)[C@@H](O)CC1=O)[C@H](C)C[C@@H]2OC [tacrolimus]
- scleroderma (thickness of the dorsal skin) (BALB/c mouse; FIG. 2C): remarkably decrease
- spleen weight (BALB/c mouse; FIG. 2D): remarkably decrease
- severe symptoms of the skin (erythema/bleeding, edema, exfoliation/dryness, excoriation/erosion) (BALB/c mouse; topical application, FIG. 2A): remarkably reduce severe symptoms of the skin
- clinical score (severity score of AD-induced skin lesions) (BALB/c mouse; scale of 0 to 12, applied to DNCB-applied skin for 2 weeks, FIG. 2B): 3.29±0.76
- number of WBC subtypes including lymphocytes, monocytes, eosinophils, basophils, and neutrophils (white blood cells (WBCs)): decrease the number of WBC subtypes
- number of white blood cells (white blood cells (WBCs)): considerably decrease
- serum IgE [1]: considerably inhibit
- serum inflammatory cytokines (IL-6, IL-10, IL-12) [1]: considerably inhibit
